Read-outs that look alike come from different tables or passages of the source.

Here are results for 17 molecules from patent US4758586A, “Indolyl compounds and hyposensitivity use thereof” (USV Pharmaceutical Corp., priority 1986, dated 1988).

One test deals with T1, 5-lipoxygenase (Rattus norvegicus, UniProt P12527).
T1 construct: A suspension of rat neutrophils in buffer; endogenous in cells; host or cells: rat neutrophils (PMN)
T1 sequence (P12527 1-673): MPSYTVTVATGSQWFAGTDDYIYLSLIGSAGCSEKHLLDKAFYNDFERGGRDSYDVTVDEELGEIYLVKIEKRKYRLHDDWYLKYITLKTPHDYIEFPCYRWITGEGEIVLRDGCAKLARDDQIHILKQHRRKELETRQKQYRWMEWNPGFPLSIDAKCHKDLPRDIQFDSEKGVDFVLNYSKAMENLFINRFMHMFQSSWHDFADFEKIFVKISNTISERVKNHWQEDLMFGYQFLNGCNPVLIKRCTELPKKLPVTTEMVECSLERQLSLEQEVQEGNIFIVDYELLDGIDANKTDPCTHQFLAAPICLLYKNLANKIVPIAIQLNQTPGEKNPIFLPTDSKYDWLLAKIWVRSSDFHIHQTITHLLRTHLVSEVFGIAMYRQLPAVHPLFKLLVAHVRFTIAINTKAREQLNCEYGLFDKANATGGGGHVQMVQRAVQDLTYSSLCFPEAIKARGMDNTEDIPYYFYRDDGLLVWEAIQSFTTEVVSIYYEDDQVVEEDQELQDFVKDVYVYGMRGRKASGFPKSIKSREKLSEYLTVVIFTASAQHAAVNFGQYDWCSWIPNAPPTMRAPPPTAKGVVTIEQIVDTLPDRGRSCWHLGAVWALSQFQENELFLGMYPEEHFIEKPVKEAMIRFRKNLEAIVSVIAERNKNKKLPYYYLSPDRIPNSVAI
Nature of the test: Protocol for detecting inhibitors of the lipoxygenase pathway (5-HETE formation in rat neutrophils). The test is classed as cell-based. As to the method: Protocol for Detecting Inhibitors of the Lipoxygenase Pathway
A suspension of rat neutrophils in buffer is incubated for 3 minutes at 30° C. with [^14 C]-arachidonic acid (AA) and Calcium Ionophore A23187. Citric acid (2M) is used to quench the reaction. Following the addition of a trace amount of (^3 H)-5-HETE together with an excess of unlabeled 5-HETE to each tube, the mixture is extracted with chloroform/methanol. The organic layer is washed with dilute acid and an aliquot is transferred to glass tubes and dried. The residue is dissolved in a small volume of chloroform and an aliquot is spotted on silica get TLC sheets, which are developed with an ethyl acetate/isooctane/water acetic acid solvent system. The 5-HETE spots are visualized with iodine, cut out and placed in scintillation vials for counting. After adjusting for the extraction efficiency, the amount (pmole) of [^14 C]-5-HETE in each of the tubes is quantitated. The net pmoles of 5-HETE are obtained by subtracting the pmoles of 5-HETE in the tubes containing […]. The ability of the test compounds to modulate the activity of this enzyme is determined by a decrease or increase in the net amount of 5-HETE produced.

Test [1] deals with leukotriene C4 -induced contraction of guinea pig peripheral strips. Nature of the test: SRS-A antagonists (SALTI): leukotriene C4-induced contraction of guinea pig peripheral lung strips. On the procedure:
Protocol for SRS-A (Slow-reacting Substance of Anaphylaxis Antagonists (SALTI)
Peripheral strips of guinea pig lungs are prepared and hung in tissue baths (Metro #ME-5505, 10 ml) according to the published procedure (Pro. Nat'l. Acad. Sci., U.S.A. Volume 77, pp. 4354-4358, 1980). The strips are thoroughly rinsed in Assay Buffer and then connected with surgical silk thread to the support rods from the tissue baths. The rods are adjusted in the baths and the strips connected to the pressure transducers (Grass FT 103 or Gould UC-3). The tissue baths are aerated with 95% oxygen 5% carbon dioxide and maintained at 37° C. The Assay Buffer has been made as follows: For each liter of buffer the following are added to approximately 800 ml of water distilled in glass--6.87 g. NaCl, 0.4 g. KCl, […]. NaHCO3, 0.14 g. NaH2 PO4.H2 O, 0.21 g. MgSO4.7H2 O, and 2.0 g. D-glucose. Then a solution of 0.368 g. CaCl2.2H2 O in 100 ml glass-distilled water is slowly added to the buffer. Sufficient water is added to adjust the volume to one liter, and the solution is aerated with 95% oxygen--5% carbon dioxide. Usually 10 liters of buffer are used for an experiment with 4 tissues.
After the tissues have been repeatedly washed and allowed to equilibrate in the tissue bath, they are challenged with 1 μM histamine. After maximum contractions have been obtained, the tissues are washed, and allowed to relax back to baseline tension. This histamine challenge procedure is repeated at least 1 to 2 more times to obtain a repeatable control response. The average response to 1 μM histamine for each tissue is used to normalize all other challenges.
Responses of each tissue to a predetermined concentration of leukotriene are then obtained. Usually test compounds are examined initially at 30 μM on resting tension of the tissues without any added agonist or antagonist to determine if the compound has any possible intrinsic activity. The tissues are washed, and the test compound is added again. Leukotriene is added after the desired pre-incubation time. The intrinsic activity of the compounds, and their effect on leukotriene-induced contractions are then recorded.
The concentration required for 50% inhibition of 0.2 μM leukotriene C4 -induced contraction of guinea pig peripheral strips for representative compounds of the present invention is shown in Table 3.

Another test concerns Phospholipase C (PLC). Nature of the test: In vitro assay for inhibitors of Phospholipase C (PLC) from rat platelets. Format: biochemical. The following applies: at level tested (300 u). The source says: A. Protocol For In Vitro Assay For Inhibitors Of Phospholipase C (PLC)
The PLC employed in this screen is obtained by aggregation of purified rat platelets in the presence of CaCl2 and ADP. In the enzyme assay phosphatidylinositol having ^3 H -labeled arachidonate residues at R2 is employed as substrate. PLC acts by cleaving the phosphate ester bond yielding diglyceride as follows: [drawing 18]
Following completion of the reaction, the assay medium is acidified and extracted with hexane which takes up unreacted substrate and diglyceride. The hexane extract is passed over a short silica gel column which retains 99% of the phosphatidylinositol. The ^3 H-labeled diglyceride is not retained […]. The diglyceride is conveniently quantitated by liquid scintillation spectrometry.
The compounds were tested at 300 u in a buffer containing 0.06 mM unlabeled phosphatidylcholine (PC), 20-30,000 cpm of (CPC), 150 mM NaCl, 5 mM CaCl2 and 50 mM tris(hydroxymethyl)methylaminopropanesulfonic acid buffer, adjusted to pH 9.0 with 1N NaOH. The temperature of the buffer was maintained at a temperature of 37° C. The reaction was initiated by addition of the enzyme and it was terminated 10 minutes later by addition of 1 ml of 1N HCl.
Following acidification, the samples were extracted with 2 ml of isopropyl alcohol and 2 ml of hexane, vortexed and allowed to stand until the phases separate. […] and some unreacted substrate were taken up in the isopropanol-saturated hexane. The hexane phase of the extraction mixture was transferred to a short silica gel column which retains unreacted phosphatidylinositol, but not the 3H-diglyceride. The column effluent was collected directly in scintillation vials. The columns were washed once with additional 2 ml of hexane. The radiolabelled diglycerides were quantitated by liquid scintillation.

The next test concerns the target T2, Phospholipase A2 (PLA2) (Rattus norvegicus, UniProt P14423).
T2 construct: obtained by aggregation of purified rat platelets; from tissue; host or cells: rat platelets (enzyme obtained by aggregation)
T2 sequence (P14423 22-146): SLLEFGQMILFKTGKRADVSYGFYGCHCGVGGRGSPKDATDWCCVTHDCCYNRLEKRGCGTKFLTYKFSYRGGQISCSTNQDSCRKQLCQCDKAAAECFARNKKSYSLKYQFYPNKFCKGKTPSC
In words: In vitro assay for inhibitors of Phospholipase A2 (PLA2) from rat platelets. Format: biochemical. The text has this:
B. In Vitro Assay For Inhibitors of Phospholipase A2 Assayed at pH 7.0 (PLA2)
The PLA2 employed in this screen is obtained by aggregation of purified rat platelets. In the enzyme assay phosphatidylcholine having ^14 C-labeled palmitate residues at R1 and R2 is employed as substrate. PLA2 acts by cleaving the R2 fatty acid ester bond yielding free fatty acid and lysophosphatidyl choline as follows: [drawing 19]
Following completion of the reaction, the assay medium is acidified and extracted with hexane, which takes up unreacted substrate and free fatty acid product. The hexane extract is passed over a short silica column which retains 99% of the phosphatidyl choline. The ^14 C-labeled palmitic acid is not retained (90% recovery in eluate) and is collected directly in scintillation counting vials. The released palmitic acid is conveniently quantitated by liquid scintillation spectrometry.
The compounds were tested at 100 uM in a buffer containing 0.3 mM unlabeled phosphatidylcholine (PC), 20-30,000 cpm of ^14 C(CPC), […], 1 mM CaCl2 and 50 mM tris-HCl adjusted to pH 7.2 with 1N NaOH. […] The temperature of the buffer was maintained at a temperature of 37° C. The reaction was initiated by addition of the enzyme and it was terminated 30 minutes later by the addition of […] of 1N HCl.
Following acidification, the samples were extracted with 2 ml of 2-propanol and 2 ml of hexane, vortexed and allowed to stand until the phases separated. Free fatty acids (FFA) and some unreacted substrate were taken up in the isopropanol-saturated hexane. The hexane phase of the extraction mixture was transferred to a short silica gel column which retained […] but not the FFA. The column effluent was collected directly in scintillation vials. The columns were washed once with an additional 2 ml of hexane. The radio labeled FFA were quantitated by liquid scintillation spectrometry.

Setting [2] is: rat PMN, [14C]-arachidonic acid + A23187, 5-HETE, read-out: LOX, (RAT PMN) I50.
Setting [3] is: Cavia porcellus, 0.2 μM leukotriene C4-induced contraction, read-out: SALTI, I50 μM.
The mark [4] stands for this setting: Cavia porcellus, leukotriene-induced contraction, read-out: SALTI I50 (Table 5).
Where [5] appears, read: read-out: PLA2, inhibition level reached at 30 μM (Ixx = 30 μM).

On to `CCOC(=O)C=CC=Cc1cn(Cc2ccccc2)c2ccccc12` [Example 1, Ethyl 5-(1-Benzylindol-3-yl)-2,4-Pentadienoate], for which, at 5-lipoxygenase (setting [2]), the IC50 was found to be 10 µM. For `CCOC(=O)C=CC=Cc1c[nH]c2ccccc12` [Example 10, Ethyl 5-(indol-3-yl)-2,4-Pentadienoate], the IC50 came out at 12 µM on 5-lipoxygenase (setting [2]) and 2 µM in test [1] (setting [3]). Turning to `CCOC(=O)C=CC=Cc1cn(Cc2ccccc2)c2ccc(OC)cc12` [Example 6, Ethyl 5-(1-Benzyl-5-Methoxyindol-3-yl)-2,4-Pentadienoate], the IC50 at 5-lipoxygenase (setting [2]) turned out to be 4 µM.

On to `CCOC(=O)C=CC=Cc1cc2cc(OC)ccc2[nH]1` [Example 16, Ethyl 5-(5-methoxyindol-2-yl)-2,4-Pentadienoate], for which the IC50 on 5-lipoxygenase (setting [2]) is 10 µM. The inhibition at 30 µM in test [1] (Cavia porcellus, at 30 μM, 0.2 μM leukotriene C4-induced contraction, read-out: SALTI, % I at 30 μM) came out at 53%. As to `CCOC(=O)C=CC=Cc1cc2cc(OC)ccc2n1C(=O)c1ccc(Cl)cc1` [Example 17, Ethyl 5-(1-p-chlorobenzoyl-5-methoxyindol-2-yl)-2,4-Pentadienoate], the IC50 on 5-lipoxygenase (setting [2]) was determined as 10 µM.

With `CCOC(=O)C=Cc1cc2ccccc2[nH]1` [Ethyl B-(indol-2-yl)acrylate], the IC50 in test [1] (setting [4]) stood at 30 µM. The “PLC activity class (Table 5)” value with Phospholipase C (PLC) is “I”. On to `CCOC(=O)c1ccc(NC(=O)C=CC=Cc2cn(Cc3ccccc3)c3ccccc23)cc1` [Example 3, N-(4-Carbethoxyphenyl)-5-(1-benzylindol-3-yl)-2,4-Pentadienamide], for which the IC50 at 5-lipoxygenase (setting [2]) worked out at 2 µM. Take `COc1ccc2c(c1)c(C=CC=CC(=O)O)cn2Cc1ccccc1` [Example 7, 5-(1-Benzyl-5-methoxyindol-3-yl)-2,4-Pentadienoic Acid]: the IC50 stood at 6 µM on 5-lipoxygenase (setting [2]) and 20 µM in test [1] (setting [3]). In addition, at Phospholipase A2 (PLA2) (setting [5]), the inhibition at 30 µM is 42%. For `CCOC(=O)C=Cc1cn(Cc2ccccc2)c2ccccc12` [Ethyl-B-(benzylindol-3-yl)acrylate, reference compound], in test [1] (at level tested (initially 30 μM)), the “SALTI activity class (Table 5)” value is given as “I”. For `Cc1c(C=CC(=O)O)c2ccccc2n1Cc1ccccc1` [B-(1-Benzyl-2-methyl-indol-3-yl)acrylic acid], the IC50 in test [1] (setting [4]) worked out at 20 µM. On to `CCOC(=O)C=Cc1c(C)n(Cc2ccccc2)c2ccccc12` [Ethyl B-(1-benzyl-2-methyl-indol-3-yl)acrylate], for which, at 5-lipoxygenase (Formula III, n=1 compounds, read-out: LOX I50 (Table 5)), the IC50 came out at 1 µM. For the same molecule, the “PLC activity class (Table 5)” value in the test on Phospholipase C (PLC) is “I”. As to `O=C(O)C=CC=Cc1cn(Cc2ccccc2)c2ccccc12` [Example 2, 5-(1-Benzylindol-3-yl)-2,4-Pentadienoic Acid], the IC50 at 5-lipoxygenase (setting [2]) turned out to be 2 µM; against Phospholipase A2 (PLA2), 16 µM. For the molecule `O=C(O)C=CC=Cc1cn(Cc2ccccc2)c2ccc(OCc3ccccc3)cc12` [Example 5, 5-(1-Benzyl-5-Benzyloxyindol-3-yl)-2,4-Pentadienoic Acid], the IC50 at 5-lipoxygenase (setting [2]) is 2 µM. Consider `CCOC(=O)C=CC=Cc1c(C)n(Cc2ccccc2)c2ccccc12` [Example 11, Ethyl 5-(1-Benzyl-2-methylindol-3yl)-2,4-Pentadienoate], for which, at 5-lipoxygenase (setting [2]), the IC50 came to 15 µM. Consider `OCC=Cc1cn(Cc2ccccc2)c2ccccc12` [Example 13, 1-Benzyl-3-(3-Hydroxy-1-Propen-1-yl)Indole], for which, at 5-lipoxygenase (setting [2]), the IC50 was found to be 7.5 µM. In the case of `CCOC(=O)C=CC=Cc1cn(Cc2ccccc2)c2ccc(OCc3ccccc3)cc12` [Example 4, Ethyl 5-(1-Benzyl-5-Benzyloxyindol-3-yl)-2,4-Pentadienoate], the inhibition at 30 µM at Phospholipase A2 (PLA2) (setting [5]) was 37%. For the molecule `O=C(O)C=Cc1cn(Cc2ccccc2)c2ccccc12` [B-(1-Benzylindol-3-yl)acrylic acid], the inhibition at 30 µM on Phospholipase A2 (PLA2) (read-out: PLA2, inhibition level reached at 30 μM (printed I44 = 30 μM, Table 5)) turned out to be 44%.
